Key:
[1] = molecular target: T1, Alpha-2C adrenergic receptor (Homo sapiens, UniProt P18825); assay: DRUGMATRIX: Adrenergic Alpha-2C radioligand binding (ligand: [3H] MK-912); format: cell membranes, Sf9, Membrane
T1 sequence (P18825 whole entry): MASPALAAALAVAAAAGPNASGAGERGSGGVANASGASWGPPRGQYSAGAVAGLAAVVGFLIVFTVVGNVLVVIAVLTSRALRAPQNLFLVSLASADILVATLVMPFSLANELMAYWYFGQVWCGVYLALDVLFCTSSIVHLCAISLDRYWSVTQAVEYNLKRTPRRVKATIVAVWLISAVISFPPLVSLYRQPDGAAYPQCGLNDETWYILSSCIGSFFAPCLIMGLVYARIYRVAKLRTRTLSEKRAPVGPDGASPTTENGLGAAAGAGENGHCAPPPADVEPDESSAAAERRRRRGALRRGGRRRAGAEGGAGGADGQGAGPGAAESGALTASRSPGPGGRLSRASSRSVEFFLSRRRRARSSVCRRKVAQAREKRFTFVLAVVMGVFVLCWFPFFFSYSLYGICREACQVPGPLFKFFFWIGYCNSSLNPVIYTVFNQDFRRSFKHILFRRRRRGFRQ

[2] = molecular target: T2, Type-2 angiotensin II receptor (Homo sapiens, UniProt P50052); format: cell-based; conditions: cho-k1; also: in other assays of this panel Not Active means under 50% inhibition at 10 µM
T2 sequence (P50052 whole entry): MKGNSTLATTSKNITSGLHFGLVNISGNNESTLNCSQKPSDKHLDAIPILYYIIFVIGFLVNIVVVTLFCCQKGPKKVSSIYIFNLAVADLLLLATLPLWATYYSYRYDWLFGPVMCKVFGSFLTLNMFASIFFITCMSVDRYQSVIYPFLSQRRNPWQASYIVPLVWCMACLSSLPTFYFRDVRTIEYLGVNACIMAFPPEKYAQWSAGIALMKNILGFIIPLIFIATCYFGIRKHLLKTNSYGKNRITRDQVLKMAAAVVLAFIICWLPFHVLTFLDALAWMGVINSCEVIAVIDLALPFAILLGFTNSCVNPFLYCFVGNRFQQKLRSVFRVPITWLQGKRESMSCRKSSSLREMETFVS

[3] = molecular target: T3, 5-hydroxytryptamine receptor 2C (Homo sapiens, UniProt P28335); assay: DRUGMATRIX: Serotonin (5-Hydroxytryptamine) 5-HT2C radioligand binding (ligand: [3H] Mesulergine); format: cell membranes, CHO-K1, Membrane; conditions: Not Active = under 50% inhibition at 10 µM
T3 sequence (P28335 whole entry): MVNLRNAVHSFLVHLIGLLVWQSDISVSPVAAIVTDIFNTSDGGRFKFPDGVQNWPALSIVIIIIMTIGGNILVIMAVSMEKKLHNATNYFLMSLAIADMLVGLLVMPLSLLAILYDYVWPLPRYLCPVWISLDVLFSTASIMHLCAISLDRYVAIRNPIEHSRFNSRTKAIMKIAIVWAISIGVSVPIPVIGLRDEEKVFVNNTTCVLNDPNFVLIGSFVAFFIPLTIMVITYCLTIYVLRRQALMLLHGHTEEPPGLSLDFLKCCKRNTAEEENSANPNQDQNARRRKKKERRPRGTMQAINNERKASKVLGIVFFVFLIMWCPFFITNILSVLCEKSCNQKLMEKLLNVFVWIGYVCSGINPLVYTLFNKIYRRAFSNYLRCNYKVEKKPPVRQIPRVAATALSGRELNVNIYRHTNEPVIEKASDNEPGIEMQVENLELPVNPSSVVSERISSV

[4] = molecular target: T4, C-X-C chemokine receptor type 2 (Homo sapiens, UniProt P25025); format: cell membranes, Membrane; conditions: cho-k1; also: in other assays of this panel Not Active means under 50% inhibition at 10 µM
T4 sequence (P25025 whole entry): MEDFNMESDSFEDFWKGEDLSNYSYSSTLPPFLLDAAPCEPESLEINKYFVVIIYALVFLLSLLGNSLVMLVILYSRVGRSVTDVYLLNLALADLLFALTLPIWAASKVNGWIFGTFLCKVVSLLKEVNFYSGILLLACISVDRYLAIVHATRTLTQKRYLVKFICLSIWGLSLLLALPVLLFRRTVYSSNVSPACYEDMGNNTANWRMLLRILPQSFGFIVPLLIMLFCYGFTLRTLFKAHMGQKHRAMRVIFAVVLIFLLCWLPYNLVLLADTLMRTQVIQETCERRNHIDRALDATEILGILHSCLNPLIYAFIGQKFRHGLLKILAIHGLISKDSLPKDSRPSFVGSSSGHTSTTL

Nitric oxide synthase 1 = Nitric oxide synthase 1 (Rattus norvegicus, UniProt P29476); format: tissue-based, Cerebellum; also: in other assays of this panel Not Active means under 50% inhibition at 10 µM
Chain of Nitric oxide synthase 1 (P29476 whole entry): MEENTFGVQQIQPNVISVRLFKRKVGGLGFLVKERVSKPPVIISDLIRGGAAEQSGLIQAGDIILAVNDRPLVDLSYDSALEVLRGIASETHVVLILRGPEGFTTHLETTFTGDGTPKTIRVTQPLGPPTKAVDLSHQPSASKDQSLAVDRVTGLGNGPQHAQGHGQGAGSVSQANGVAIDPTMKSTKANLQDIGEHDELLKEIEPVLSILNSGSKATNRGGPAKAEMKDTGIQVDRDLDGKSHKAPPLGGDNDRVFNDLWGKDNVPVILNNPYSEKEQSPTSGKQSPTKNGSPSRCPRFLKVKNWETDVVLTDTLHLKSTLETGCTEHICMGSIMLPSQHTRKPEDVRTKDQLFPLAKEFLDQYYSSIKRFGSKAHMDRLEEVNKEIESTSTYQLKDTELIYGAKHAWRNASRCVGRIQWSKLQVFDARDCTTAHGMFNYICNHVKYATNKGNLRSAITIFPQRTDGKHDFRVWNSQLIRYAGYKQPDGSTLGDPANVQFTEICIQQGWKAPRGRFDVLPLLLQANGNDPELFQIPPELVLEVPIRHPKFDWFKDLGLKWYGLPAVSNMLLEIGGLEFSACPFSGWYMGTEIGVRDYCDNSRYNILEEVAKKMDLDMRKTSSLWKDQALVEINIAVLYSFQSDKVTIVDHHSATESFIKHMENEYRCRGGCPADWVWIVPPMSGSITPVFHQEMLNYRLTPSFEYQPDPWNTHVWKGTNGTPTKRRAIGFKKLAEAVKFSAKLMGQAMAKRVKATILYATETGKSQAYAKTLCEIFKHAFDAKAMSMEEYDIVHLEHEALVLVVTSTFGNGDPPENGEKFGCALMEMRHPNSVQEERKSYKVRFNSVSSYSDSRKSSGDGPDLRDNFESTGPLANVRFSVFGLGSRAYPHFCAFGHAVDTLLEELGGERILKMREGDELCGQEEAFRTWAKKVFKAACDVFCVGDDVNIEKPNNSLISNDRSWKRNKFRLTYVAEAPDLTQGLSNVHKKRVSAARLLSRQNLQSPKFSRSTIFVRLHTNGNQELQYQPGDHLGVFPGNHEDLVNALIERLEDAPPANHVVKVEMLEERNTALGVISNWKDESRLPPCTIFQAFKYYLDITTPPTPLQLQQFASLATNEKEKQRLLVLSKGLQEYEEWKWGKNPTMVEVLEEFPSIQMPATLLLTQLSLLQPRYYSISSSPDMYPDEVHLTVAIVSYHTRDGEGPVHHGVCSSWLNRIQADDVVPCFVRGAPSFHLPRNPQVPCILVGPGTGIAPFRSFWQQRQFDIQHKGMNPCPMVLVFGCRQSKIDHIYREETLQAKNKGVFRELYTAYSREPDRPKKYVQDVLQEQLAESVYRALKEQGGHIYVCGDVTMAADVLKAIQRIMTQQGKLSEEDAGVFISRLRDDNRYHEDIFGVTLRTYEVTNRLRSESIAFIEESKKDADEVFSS

Mu-type opioid receptor = Mu-type opioid receptor (Homo sapiens, UniProt P35372); assay: DRUGMATRIX: Opiate mu (OP3, MOP) radioligand binding (ligand: [3H] Diprenorphine); format: cell membranes, CHO-K1, Membrane; conditions: cho-k1; Not Active = under 50% inhibition at 10 µM
Chain of Mu-type opioid receptor (P35372 whole entry): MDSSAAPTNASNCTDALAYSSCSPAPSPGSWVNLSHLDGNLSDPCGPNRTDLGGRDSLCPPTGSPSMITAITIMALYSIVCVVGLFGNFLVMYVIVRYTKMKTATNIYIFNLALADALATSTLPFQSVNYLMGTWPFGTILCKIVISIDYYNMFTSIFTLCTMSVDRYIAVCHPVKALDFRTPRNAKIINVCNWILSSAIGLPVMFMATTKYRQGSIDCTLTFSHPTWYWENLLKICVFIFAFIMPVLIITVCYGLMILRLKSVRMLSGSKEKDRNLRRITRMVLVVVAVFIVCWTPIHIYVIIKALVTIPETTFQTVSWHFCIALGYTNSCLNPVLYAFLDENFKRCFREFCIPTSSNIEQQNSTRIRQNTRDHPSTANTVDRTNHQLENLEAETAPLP

SMILES	IC50 ([1]; sf9)	IC50 [2]	IC50 ([3]; cho-k1)	IC50 [4]	IC50 (Nitric oxide synthase 1)	IC50 (Mu-type opioid receptor)	IC50 ([1]; read-out: IC50) [nM]	Ki ([1]; read-out: Ki) [nM]	Ki [2]	IC50 ([3]; read-out: IC50) [nM]	Ki ([3]; read-out: Ki) [nM]
O=P(O)(O)C(O)(Cc1cccnc1)P(=O)(O)O [RISEDRONIC ACID]	Not Active	Not Active	Not Active	Not Active	Not Active	Not Active	–	–	–	–	–
COc1ccc(/C=C/C(=O)Nc2ccccc2C(=O)O)cc1OC	Not Active	Not Active	Not Active	Not Active	Not Active	Not Active	–	–	–	–	–
CCOC(N)=O	Not Active	Not Active	Not Active	Not Active	Not Active	Not Active	–	–	–	–	–
C#CCN(C)[C@H](C)Cc1ccccc1 [SELEGILINE]	Not Active	Not Active	Not Active	Not Active	Not Active	Not Active	–	–	–	–	–
Nc1ccc(S(=O)(=O)Nc2ncccn2)cc1 [SULFADIAZINE]	Not Active	Not Active	Not Active	Not Active	Not Active	Not Active	–	–	–	–	–
C[C@@H]1C[C@H]2[C@@H]3CCC4=CC(=O)C=C[C@]4(C)C3=CC[C@]2(C)[C@H]1C(=O)CN1CCN(c2cc(N3CCCC3)nc(N3CCCC3)n2)CC1 [TIRILAZAD]	–	–	–	Not Active	Not Active	Not Active	7900	1150	Not Active	718	376
COc1ncnc(NS(=O)(=O)c2ccc(N)cc2)c1OC [SULFADOXINE]	Not Active	Not Active	Not Active	Not Active	Not Active	Not Active	–	–	–	–	–
CC1=C(CC(=O)O)c2cc(F)ccc2/C1=C\c1ccc(S(C)(=O)=O)cc1 [EXISULIND]	Not Active	Not Active	Not Active	Not Active	Not Active	Not Active	–	–	–	–	–
NC[C@H]1O[C@H](O[C@H]2[C@H](O)[C@@H](O[C@H]3O[C@H](CO)[C@@H](O)[C@H](N)[C@H]3O)[C@H](N)C[C@@H]2N)[C@H](N)C[C@@H]1O [TOBRAMYCIN]	Not Active	Not Active	Not Active	Not Active	Not Active	Not Active	–	–	–	–	–
